# Data as given in the supplement of paper PMC11061612.
# Legend:
# Assay in all cases: Bliss excess, mean over the matrix (fraction); higher = more synergy
# [1] = tested on: HT-3 (Cervical Carcinoma)
# Summary of the method: (§1)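 Bliss excess equals the observed combination effect minus the expected value EA + EB − EA·EB, where EA and EB are the effects of each agent alone. Combination Emax is the second-highest inhibition within the matrix. Inhibition was scaled from CellTiter-Glo 2.0 luminescence, with 0 set by vehicle wells and 1 by blank wells, after 72 hours of two-drug dosing of cells plated in 1536-well plates.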
# [2] = tested on: KNS-62 (Squamous Cell Lung Carcinoma)
# Summary of the method: as §1
# [3] = tested on: NCI-H835 (Other Solid Carcinomas)
# Summary of the method: as §1
# [4] = tested on: IGROV-1 (Ovarian Carcinoma)
# Summary of the method: as §1
# [5] = tested on: NCI-H2009 (Lung Adenocarcinoma)
# Summary of the method: as §1
# [6] = tested on: NCI-H1048 (Small Cell Lung Carcinoma)
# Summary of the method: as §1
# [7] = tested on: JURL-MK1 (Chronic Myelogenous Leukemia)
# Summary of the method: as §1
# SK-MEL-24 (Melanoma) = tested on: SK-MEL-24 (Melanoma)
# Summary of the method: as §1
# [8] = tested on: C2BBe1 (Colorectal Carcinoma)
# Summary of the method: as §1
# [9] = tested on: L-363 (Plasma Cell Myeloma)
# Summary of the method: as §1
# [10] = tested on: NCI-H1648 (Lung Adenocarcinoma)
# Summary of the method: as §1
# [11] = tested on: GRANTA-519 (B-Cell Non-Hodgkin's Lymphoma)
# Summary of the method: as §1
# [12] = tested on: TK (B-Cell Non-Hodgkin's Lymphoma)
# Summary of the method: as §1
# A375 (Melanoma) = tested on: A375 (Melanoma)
# Summary of the method: as §1
# [13] = tested on: MRK-nu-1 (Breast Carcinoma)
# Summary of the method: as §1
# [14] = tested on: CAL-85-1 (Breast Carcinoma)
# Summary of the method: as §1
# [15] = tested on: NCI-H1975 (Lung Adenocarcinoma)
# Summary of the method: as §1
# [16] = tested on: TOV-21G (Ovarian Carcinoma)
# Summary of the method: as §1
# [17] = tested on: BT-474 (Breast Carcinoma)
# Summary of the method: as §1
# [18] = tested on: JJN-3 (Plasma Cell Myeloma)
# Summary of the method: as §1
Compound,Bliss excess [1],Bliss excess [2],Bliss excess [3],Bliss excess [4],Bliss excess [5],Bliss excess [6],Bliss excess [7],Bliss excess (SK-MEL-24 (Melanoma)),Bliss excess [8],Bliss excess [9],Bliss excess [10],Bliss excess [11],Bliss excess [12],Bliss excess (A375 (Melanoma)),Bliss excess [13],Bliss excess [14],Bliss excess [15],Bliss excess [16],Bliss excess [17],Bliss excess [18]
"COc1cccc(OCCCN)c1-c1cc(Nc2cnc(C#N)cn2)n[nH]1 [Prexasertib] + Cc1cc2ncnn2cc1Nc1ncc2c(n1)n(C1CCOCC1)c(=O)n2C [AZD7648] (first compound max 1 µM, 7x7, partner max 10 µM)",-0.0098,-0.0225,-0.0346,-0.0264,-0.027,-0.0275,0.0485,0.0054,0.0318,-0.0437,-0.0609,-0.0489,-0.0477,0.0029,-0.0258,0.0382,0.041,0.0057,-0.0188,-0.0097
"NC1(C(=O)N[C@@H](CCO)c2ccc(Cl)cc2)CCN(c2ncnc3[nH]ccc23)CC1 [Capivasertib] + COc1nnc2ccc(N3CCC(c4ccc(OCCN5CCN(C)C(=O)[C@H]5C)cc4)CC3)nn12 [AZD5153] (first compound max 10 µM, 7x7, partner max 1 µM)",-0.0281,0.0035,0.0792,-0.0221,0.0374,0.0588,0.0101,0.0073,-0.0365,0.108,-0.0694,-0.0148,0.012,0.009,0.0058,0.0009,-0.0761,0.0011,0.0761,-0.0242
"Cn1cnc2c(F)c(Nc3ccc(Br)cc3Cl)c(C(=O)NOCCO)cc21 [Selumetinib] + C=CCn1c(=O)c2cnc(Nc3ccc(N4CCN(C)CC4)cc3)nc2n1-c1cccc(C(C)(C)O)n1 [AZD1775] (first compound max 10 µM, partner max 1 µM)",-0.0009,-0.0251,-0.0223,-0.0444,0.0308,-0.0564,0.0067,-0.0315,-0.0398,-0.0042,-0.0704,0.03,-0.0478,-0.0187,-0.0289,-0.063,-0.0318,-0.0891,-0.0466,-0.0188
"Cn1cnc2c(F)c(Nc3ccc(Br)cc3Cl)c(C(=O)NOCCO)cc21 [Selumetinib] + CC(C)n1c(=O)n(C)c2cnc3cc(F)c(-c4ccc(OCCCN5CCCCC5)nc4)cc3c21 [AZD1390] (first compound max 10 µM, 7x7, partner max 0.3 µM)",-0.0392,-0.0513,-0.0464,-0.0204,-0.0254,-0.0372,-0.0296,-0.014,-0.05,-0.0252,-0.0418,-0.0254,-0.0134,-0.0271,0.0225,-0.0039,-0.0473,-0.0336,-0.0469,0.0046
"COc1cccc(OCCCN)c1-c1cc(Nc2cnc(C#N)cn2)n[nH]1 [Prexasertib] + CCc1c2c(nc3ccc(O)cc13)-c1cc3c(c(=O)n1C2)COC(=O)[C@]3(O)CC [SN-38] (first compound max 1 µM, 7x7, partner max 0.3 µM)",0.0221,-0.0385,-0.0014,-0.0131,0.132,0.0152,-0.0109,-0.0557,-0.0103,0.0377,0.0114,0.0025,0.0138,-0.0224,-0.0613,0.0699,0.108,-0.122,-0.0075,0.0314
"COc1nnc2ccc(N3CCC(c4ccc(OCCN5CCN(C)C(=O)[C@H]5C)cc4)CC3)nn12 [AZD5153] + CC1(C)CCC(CN2CCN(c3ccc(C(=O)NS(=O)(=O)c4ccc(NCC5CCOCC5)c([N+](=O)[O-])c4)c(Oc4cnc5[nH]ccc5c4)c3)CC2)=C(c2ccc(Cl)cc2)C1 [Venetoclax] (first compound max 1 µM, 7x7, partner max 1 µM)",-0.0644,-0.0381,-0.125,-0.0416,-0.0432,0.0165,-0.0676,-0.0685,-0.0234,-0.101,-0.062,0.0237,0.0193,-0.057,-0.0537,-0.0582,-0.0579,-0.0264,-0.078,0.0278
"Cn1cnc2c(F)c(Nc3ccc(Br)cc3Cl)c(C(=O)NOCCO)cc21 [Selumetinib] + C[C@@H]1COCCN1C2=NC(=NC(=C2)C3(CC3)[S@](=N)(=O)C)C4=C5C=CNC5=NC=C4 [AZD6738] (first compound max 10 µM, 7x7, partner max 10 µM)",0.063,-0.0278,-0.0375,0.0211,-0.0313,0.0132,0.0095,0.0125,-0.052,-0.0207,-0.0259,0.0067,0.0005,0.0189,-0.0317,0.0508,0.0316,0.0142,-0.0485,0.0533
"COc1cccc(OCCCN)c1-c1cc(Nc2cnc(C#N)cn2)n[nH]1 [Prexasertib] + CN(C)CCCOc1ccc(-c2ccc3ncc4c(c3c2)n(C2CCOCC2)c(=O)n4C)cn1 [AZD0156] (first compound max 1 µM, 7x7, partner max 1 µM)",0.0366,0.0357,0.0571,-0.0283,0.019,-0.0023,0.0231,0.0017,0.0131,-0.039,-0.0136,-0.035,-0.0412,0.0098,0.0456,-0.0157,0.026,0.0588,0.0023,0.0057
